In patent publication US12285498B2, “Pharmaceutical composition with nanoparticle-based drug delivery combined with non-invasive radiographic monitoring model” (NANOMEDTRIX, LLC, priority 2023, dated 2025):
Read-outs that look alike come from different tables or passages of the source. Values belong to the compound of their own block, whether it stands above or below them.

How the values were obtained:
in vivo [1] = experiment: in vivo
Excerpt: The following discusses oral administration and detection of the drug delivered orally. There is a need for oral drug delivery, i.e., it facilitates self-medication, storage, and reduced burden on the clinician, allowing for remote monitoring.

[2] = intravenous, cited from earlier work
in vivo [3] = experiment: in vivo; remark: listed apart in the source
Excerpt: Blood, urine, and stools were collected to evaluate renal and gastro-intestinal clearance of nanomaterials. Sequential and simultaneous administration of one material and before the start of another to allow full clearance.
Both strains were obtained from Inotiv (Indianapolis, IN, USA). F344 rats were instilled with rat AY27 bladder cancer cells and athymic nude rats were instilled with human male bladder cancer strains: T24 and UMUC-3. […] In these rats, blood/urine were collected, but spared from PK/PD studies to avoid confounding results. In this cohort, rats (n=3) were instilled with tumors and treated with sequential intravesical and oral drug-MSN 3-drugs load and body fluids (blood/urine) collection at the same prescribed time points. An example: four rounds of treatment were administered fluid collected n=3 samples at each time point.

[4] = known value; cited from earlier work
[5] = PK, intravenous administration of drug alone (current study); type: in vivo, rat; conditions: for Cmax: 3 mg/kg DOC, 12 mg/kg GEM, 6 mg/kg MMC; for AUC: read-out: AUC (Plasma Curves)
Method: Adult female rats are 250-300 g in body weight, or 10-15 times larger than adult C57-BI6 mice. The volume of an aqueous solution given by oral gavage procedure can be up to 5 mL/kg, thus for a 300 g rat, 1.5 mL volume is achievable (Turner, J Am Assoc Lab Anim Sci. 51(1): 25-30.). This permits a mass of 150 mg MSN, or the equivalent dose of free drug. The recommended volume of a tail vein injection is also 5 mL/kg, thus 150 mg MSN or equivalent drug can be administered by i.v. as well (https://research.unc.edu/files/2020/12/rat-handling-and-techniques.pdf).
We compared the one or 2 drugs to experiment carried out intravenous/systemic and/or intravesicular drug alone.

[6] = oral, 50 mg/kg; cited from earlier work
[7] = rat, in vivo
[8] = intravenous, cited from earlier work; remark: listed apart in the source
[9] = Comparison of AUC for drug-MSN versus drug administered alone (FIG. 7); conditions: rat, in vivo
[10] = intravenous, cited from earlier work; remark: listed apart in the source
[11] = female, rat, in vivo, po, 3 mg/kg
[12] = female, rat, in vivo, po, Cmax in stool
[13] = female, rat, in vivo, po, Cmax in urine
[14] = female, rat, in vivo, Cmax in stools
[15] = female, rat, in vivo, initial concentration (Cmax) in urine
[16] = female, rat, plasma, read-out: Cmax
[17] = female, rat, in vivo, po, 12 mg/kg

AUC (in vivo [1]; [11]): 0.0133 µg·h/mL
Clearance (in vivo [1]; [11]): 45.11 L/h
tmax (in vivo [1]; [11]): 60 min
Cmax (in vivo [1]; [12]): 352 ng/mL
Cmax (in vivo [1]; [13]): 413 ng/mL
time of Cmax in stool (in vivo [1]; rat, in vivo, po): 6 h
Cmax (in vivo [3]; [14]): 9.44 ng/mL
Cmax (in vivo [3]; [15]): 16600 ng/mL
detection in plasma (in vivo [3]; rat, in vivo): below the detection threshold
time of Cmax in stools (in vivo [3]; rat, in vivo): 24 h
Cmax [5, 16]: 116 ng/mL
Clearance ([5]; female, rat, plasma, 3 mg/kg): 624 mL/min
AUC ([5]; female, rat, plasma, 3 mg/kg): 0.016 µg·h/mL
tmax ([5]; female, rat, plasma, 3 mg/kg, read-out: tmax): 15 min
Compound: CC(=O)O[C@@]12CO[C@@H]1C[C@H](O)[C@@]1(C)C(=O)[C@H](O)C3=C(C)[C@@H](OC(=O)[C@H](O)[C@@H](NC(=O)OC(C)(C)C)c4ccccc4)C[C@@](O)([C@@H](OC(=O)c4ccccc4)[C@H]21)C3(C)C [Docetaxel]
AUC (Plasma Curves) ([2]; 2 mg/kg): 0.277 µg·h/mL
Cmax ([2]; 2 mg/kg): 68 ± 10 ng/mL
AUC (Plasma Curves) ([2]; 5 mg/kg): 16367.39 µg·h/mL
Cmax ([2]; 5 mg/kg): 7000 ng/mL
AUC (Plasma Curves) ([2]; 8 mg/kg): 2.2 ± 0.3 µg·h/mL
Cmax ([2]; 8 mg/kg): 950 ng/mL
oral bioavailability [4]: 10%

Compound: Nc1ccn([C@@H]2O[C@H](CO)[C@@H](O)C2(F)F)c(=O)n1 [Gemcitabine]
AUC (Plasma Curves) [6]: 16132.95 ± 5128.0 µg·h/mL
Cmax [6]: 1181.17 ± 47.1 ng/mL
tmax [6]: 90 ± 54 min
AUC, drug alone compared with drug-loaded MSN [7]: higher for drug alone
AUC (in vivo [1]; [17]): 1.14 µg·h/mL
Clearance (in vivo [1]; [17]): 2.109 L/h
tmax (in vivo [1]; [17]): 30 min
Cmax (in vivo [1]; [12]): 26.1 ng/mL
Cmax (in vivo [1]; [13]): 4740 ng/mL
time of Cmax in stool (in vivo [1]; rat, in vivo, po): 6 h
plasma Cmax as % of Cmax for urine (in vivo [3]; female, rat, in vivo): ~1%
AUC (in vivo [3]; female, rat, in vivo, 12 mg/kg): 0.28 µg·h/mL
Clearance (in vivo [3]; female, rat, in vivo, 12 mg/kg): 143 mL/min
tmax (in vivo [3]; female, rat, in vivo, 12 mg/kg): 15 min
Cmax (in vivo [3]; [14]): 2.23 ng/mL
Cmax (in vivo [3]; [15]): 55600 ng/mL
time of Cmax in plasma (in vivo [3]; rat, in vivo): ≤ 15 min
time of Cmax in stools (in vivo [3]; rat, in vivo): 24 h
oral bioavailability [4]: 10%
Cmax [5, 16]: 1790 ng/mL
Clearance ([5]; female, rat, plasma, 12 mg/kg): 17.4 mL/min
AUC ([5]; female, rat, plasma, 12 mg/kg): 2.3 µg·h/mL
tmax ([5]; female, rat, plasma, 12 mg/kg, read-out: tmax): 15 min
AUC (Plasma Curves) ([8]; 15 mg/kg): 22.69 ± 4.14 µg·h/mL
Clearance ([8]; 15 mg/kg): 393.29 L/h/m^2
AUC (Plasma Curves) ([8]; 20 mg/kg): 133 ± 20 µg·h/mL
Clearance ([8]; 20 mg/kg): 89.46 L/h/m^2
AUC (Plasma Curves) ([8]; 50 mg/kg): 5031.61 ± 927.4 µg·h/mL
Clearance ([8]; 50 mg/kg): 29.56 L/h/m^2
tmax ([8]; 15-20 mg/kg): 4.98 min

Compound: CO[C@@]12[C@H](COC(N)=O)C3=C(C(=O)C(C)=C(N)C3=O)N1C[C@@H]1N[C@@H]12 [Mitomycin C, Mitomycin c]
AUC, drug alone compared with drug-loaded MSN [9]: higher for drug alone
tmax (in vivo [1]; drug alone, oral, plasma): 30 min
Cmax in stool (in vivo [1]; oral administration, stool): 157.09 ng/mL
Cmax in urine (in vivo [1]; oral administration, urine): 16135.89 ng/mL
Cmax ([10]; 4 mg/kg): 800 ng/mL
tmax ([10]; 4 mg/kg): 15 min
Cmax ([10]; 5 mg/kg): 12800 ± 400 ng/mL
tmax ([10]; 5 mg/kg): 4.98 min
Cmax (in vivo [3]; drug alone, intravesical, 3 mg/kg DOC, 12 mg/kg GEM, 6 mg/kg MMC, plasma): 32.19 ng/mL
tmax (in vivo [3]; drug alone, intravesical, plasma): 15 min
Cmax in stools (in vivo [3]; intravesical administration, stools): 94.22 ng/mL
initial concentration (Cmax) in urine (in vivo [3]; intravesical administration, urine, 15 minutes following administration): 29498.07 ng/mL
tmax [5]: 15 min
Cmax ([5]; plasma): 39.5 ng/mL
